Laboratory results: patent US11555036B2, “FGFR4 inhibitor, preparation method therefor and pharmaceutical use thereof” (Abbisko Therapeutics Co., Ltd., priority 2016, dated 2023)

Columns and labels:
[1] = biological target: FGFR4 (Homo sapiens, UniProt P22455); assay: FGFR4 Caliper Assay (in vitro biochemical kinase analysis of FGFR4); conditions: read-out: Enzymatic activity FGFR4 IC50
In short: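 Kinase reaction at 30° C for 40 min in 50 mM HEPES pH 7.5, 16 mM MgCl2, 1 mM DTT, 0.6% DMSO, stopped with EDTA. Phosphorylated and unphosphorylated fluorescent peptides separated by Caliper microfluidic mobility shift. IC50 by non-linear regression of percent inhibition.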

[2] = tested on: Huh7 hepatocellular carcinoma cells; assay: FGFR4 cell proliferation experiment, Cell Titer Glo (CTG); type: cell-based; conditions: HuH-7 cells, 3 days; for IC50: concentration leading to absolute half growth inhibition; for EC50: concentration leading to half maximal growth inhibition
In short: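 Cells treated with 5-fold serial dilutions starting at 10 μM for 3 days at 37° C, 5% CO2. Proliferation/survival quantified as cellular ATP by CellTiter-Glo luminescence.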

Chain of FGFR4 (P22455 22-802): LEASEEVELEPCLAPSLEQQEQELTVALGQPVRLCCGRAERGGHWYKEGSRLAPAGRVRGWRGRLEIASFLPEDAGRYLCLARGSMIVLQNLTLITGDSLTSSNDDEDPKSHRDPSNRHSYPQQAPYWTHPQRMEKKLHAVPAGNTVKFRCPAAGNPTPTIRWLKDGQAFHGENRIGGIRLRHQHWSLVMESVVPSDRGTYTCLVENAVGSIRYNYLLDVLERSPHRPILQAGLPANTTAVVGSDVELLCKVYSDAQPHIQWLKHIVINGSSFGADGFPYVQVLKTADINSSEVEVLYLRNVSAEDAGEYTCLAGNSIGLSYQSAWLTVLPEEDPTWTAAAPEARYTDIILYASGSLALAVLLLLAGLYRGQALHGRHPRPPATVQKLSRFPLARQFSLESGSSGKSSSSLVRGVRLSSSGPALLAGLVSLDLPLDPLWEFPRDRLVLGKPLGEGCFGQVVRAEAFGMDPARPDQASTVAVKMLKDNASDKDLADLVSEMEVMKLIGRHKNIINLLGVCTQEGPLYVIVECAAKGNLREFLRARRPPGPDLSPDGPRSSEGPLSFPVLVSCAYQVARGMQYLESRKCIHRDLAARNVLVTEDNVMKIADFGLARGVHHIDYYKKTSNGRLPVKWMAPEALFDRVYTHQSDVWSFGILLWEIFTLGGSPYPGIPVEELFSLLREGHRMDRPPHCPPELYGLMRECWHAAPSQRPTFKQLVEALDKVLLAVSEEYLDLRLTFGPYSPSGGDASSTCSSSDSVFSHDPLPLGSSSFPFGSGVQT

For `C=CC(=O)N[C@H]1COC[C@H]1Nc1ncc2cc(-c3cc(OC)cc(OC)c3Cl)nc(NCC3CC3)c2n1` [Example 475, N-((3R,4S)-4-((6-(2-chloro-3,5-dimeth-oxyphenyl)-8-((cyclopropylmethyl)a-mino)pyrido[3,4-d]pyrimidin-2-yl)a-mino)tetrahydrofuran-3-yl)acrylamide], the IC50 [1] was 62 nM, the IC50 ([2]; Homo sapiens, Huh-7, 72 h) was 678 nM and the EC50 ([2]; Homo sapiens, Huh-7, 72 h) was 132 nM.
In the case of `C=CC(=O)Nc1cccc(C)c1Nc1cc2c(=O)n(CCOC)c(-c3c(Cl)c(OC)cc(OC)c3Cl)nc2cn1` [Example 11, N-(2-((2-(2,6-dichloro-3,5-dimethoxyphenyl)-3-(2-methoxyethyl)-4-oxo-3,4-dihydropyrido[3,4-d]pyrimidin-6-yl)amino)-3-methylphenyl) acrylamide], the IC50 [1] is reported as 101 nM, the IC50 ([2]; Homo sapiens, Huh-7, 72 h) is reported as 4720 nM and the EC50 ([2]; Homo sapiens, Huh-7, 72 h) is reported as 4720 nM.
`C=CC(=O)Nc1cccc(C)c1Nc1cc2c(OC)nc(-c3c(Cl)c(OC)cc(OC)c3Cl)nc2cn1` [Example 10, N-(2-((2-(2,6-dichloro-3,5-dimethoxyphenyl)-4-methoxy-pyrido[3,4-d]pyrimidin-6-yl)amino)-3-methylphenyl) acrylamide] gave an IC50 [1] of 105 nM, an IC50 ([2]; Homo sapiens, Huh-7, 72 h) of 4820 nM and an EC50 ([2]; Homo sapiens, Huh-7, 72 h) of 3520 nM.
`C=CC(=O)N[C@H]1COC[C@H]1Nc1ncc2cc(-c3c(F)c(OC)cc(OC)c3F)nc(N3CCC(OC)C3)c2n1` (stereo partly drawn) [Example 678, N-((3R,4S)-4-((6-(2,6-difluoro-3,5-di-methoxyphenyl)-8-(3-methoxypyrro-lidin-1-yl)pyrido[3,4-d]pyrimidin-2-yl)amino)tetrahydrofuran-3-yl)acryl-amide] was tested, and the IC50 [1] was 6.5 nM, the IC50 ([2]; Homo sapiens, Huh-7, 72 h) was 16.5 nM and the EC50 ([2]; Homo sapiens, Huh-7, 72 h) was 13.3 nM.
Work on `C=CC(=O)N[C@H]1COC[C@H]1Nc1ncc2cc(-c3c(Cl)c(OC)cc(OC)c3Cl)nc(N3CCOCC3)c2n1` [Example 686, N-((3R,4S)-4-((6-(2,6-dichloro-3,5-dimethoxyphenyl)-8-morpholino-pyrido[3,4-d]pyrimidin-2-yl)amino)tetra-hydrofuran-3-yl)acrylamide] yielded an IC50 [1] of 8.2 nM, an IC50 ([2]; Homo sapiens, Huh-7, 72 h) of 8.8 nM and an EC50 ([2]; Homo sapiens, Huh-7, 72 h) of 5.4 nM.
With `C=CC(=O)N[C@H]1COC[C@H]1Nc1ncc2cc(-c3c(Cl)c(OC)cc(OC)c3Cl)nc(NC3CCOC3)c2n1` (stereo partly drawn) [Example 443, N-((3R,4S)-4-((6-(2,6-dichloro-3,5-di-methoxyphenyl)-8-((tetrahydrofuran-3-yl)amino)pyrido[3,4-d]pyrimidin-2-yl)amino)tetrahydrofuran-3-yl) acrylamide] the IC50 [1] was 8.2 nM, the IC50 ([2]; Homo sapiens, Huh-7, 72 h) was 70.8 nM and the EC50 ([2]; Homo sapiens, Huh-7, 72 h) was 15.9 nM.
`C=CC(=O)N[C@H]1COC[C@H]1Nc1ncc2cc(-c3c(Cl)c(OC)cc(OC)c3Cl)nc(N3CC4(CCOCC4)C3)c2n1` [Example 776, N-((3R,4S)-4-((6-(2,6-dichloro-3,5-dimethoxyphenyl)-8-(7-oxa-2-azaspiro [3.5]nonan-2-yl)pyrido[3,4-d]pyrimi-din-2-yl)amino)tetrahydrofuran-3-yl)acrylamide] gave an IC50 [1] of 4.9 nM, an IC50 [2] of 9.4 nM and an EC50 [2] of 7.9 nM.
For `C=CC(=O)N[C@H]1COC[C@H]1Nc1ncc2cc(-c3cc(OC)cc(OC)c3Cl)ncc2n1` [Example 121, N-((3R,4S)-4-((6-(2-chloro-3,5-dime-thoxyphenyl)pyrido[3,4-d]pyrimidin-2-yl)amino)tetrahydrofuran-3-yl)acrylamide], the IC50 [1] was 183 nM, the IC50 ([2]; Homo sapiens, Huh-7, 72 h) was 401 nM and the EC50 ([2]; Homo sapiens, Huh-7, 72 h) was 172 nM.
For `C=CC(=O)N[C@H]1CCOC[C@H]1Nc1ncc2cc(-c3c(F)c(OC)cc(OC)c3F)nc(N3CC(C)(O)C3)c2n1` [Example 793, N-((3S,4S)-3-((6-(2,6-difluoro-3,5-dimethoxyphenyl)-8-(3-hydroxy-3-methylazetidin-1-yl)pyrido[3,4-d]py-rimidin-2-yl)amino)tetrahydro-2H-pyran-4-yl)acrylamide], the IC50 [1] was 5.3 nM, the IC50 ([2]; Homo sapiens, Huh-7, 72 h) was 9.9 nM and the EC50 ([2]; Homo sapiens, Huh-7, 72 h) was 7.9 nM.
Work on `C=CC(=O)N[C@H]1COC[C@H]1Nc1ncc2cc(-c3c(Cl)c(OC)cc(OC)c3Cl)ncc2n1` (racemic) [Example 118, (±)—N-((3R,4S)-4-((6-(2,6-dichloro-3,5-dimethoxyphenyl)pyrido[3,4-d]pyrimidin-2-yl)amino)tetrahydrofuran-3-yl)acrylamide] yielded an IC50 [1] of 80.5 nM, an IC50 ([2]; Homo sapiens, Huh-7, 72 h) of 333 nM and an EC50 ([2]; Homo sapiens, Huh-7, 72 h) of 179 nM.
`C=CC(=O)N[C@H]1CCOC[C@H]1Nc1ncc2cc(-c3c(F)c(OC)cc(OC)c3F)nc(N3CCOCC3)c2n1` [Example 789, N-((3S,4)S-3-((6-(2,6-difluoro-3,5-dimethoxyphenyl)-8-morpholinopy-rido[3,4-d]pyrimidin-2-yl)amino)tetra-hydro-2H-pyran-4-yl)acrylamide] was tested, and the IC50 [1] was 7.8 nM, the IC50 ([2]; Homo sapiens, Huh-7, 72 h) was 15.9 nM and the EC50 ([2]; Homo sapiens, Huh-7, 72 h) was 12.6 nM.
For `[2H]C([2H])([2H])Oc1cc(OC([2H])([2H])[2H])c(Cl)c(-c2cc3cnc(N[C@@H]4COC[C@@H]4NC(=O)C=C)nc3c(OCC)n2)c1Cl` [Example 754, N-((3R,4S)-4-((6-(2,6-dichloro-3,5-bis(methoxy-d3)phenyl)-8-ethoxy-pyrido[3,4-d]pyrimidin-2-yl)amino)tetra-hydrofuran-3-yl)acrylamide], the IC50 [1] was 13.6 nM, the IC50 ([2]; Homo sapiens, Huh-7, 72 h) was 54 nM and the EC50 ([2]; Homo sapiens, Huh-7, 72 h) was 18 nM.
